Values of other authors as cited in US6174886A, “Antipsychotic use of triazolo-pyridazine derivatives” (Merck Sharp & Dohme Ltd., priority 1997, dated 2001).

Test system: schizophrenic patients with an acute psychotic episode

For `CC(C)(C)OC(=O)c1ncn2c1[C@@H]1CCCN1C(=O)c1c(Br)cccc1-2` [bretazenil], the antipsychotic efficacy is listed as “moderate antipsychotic efficacy” and the “most frequent adverse reaction reported in the study” value is listed as “sedation”.
